Experimental data published in ChEMBL document CHEMBL1250444, “Nitric oxide activates TRP channels by cysteine S-nitrosylation” (Nat Chem Biol, 2006).
Activity calls are given as the source filed them. No cut-off for these calls is given here.

Key:
[1] = biological target: T1, Short transient receptor potential channel 5 (Homo sapiens) (UniProt Q9UL62); experiment: Induction of S-nitrosylation of TRPC5 in HEK cells assessed as increase in Ca2+ level from extracellular space at 50 uM; assay type: cell-based; settings: HEK293
T1 sequence (whole entry): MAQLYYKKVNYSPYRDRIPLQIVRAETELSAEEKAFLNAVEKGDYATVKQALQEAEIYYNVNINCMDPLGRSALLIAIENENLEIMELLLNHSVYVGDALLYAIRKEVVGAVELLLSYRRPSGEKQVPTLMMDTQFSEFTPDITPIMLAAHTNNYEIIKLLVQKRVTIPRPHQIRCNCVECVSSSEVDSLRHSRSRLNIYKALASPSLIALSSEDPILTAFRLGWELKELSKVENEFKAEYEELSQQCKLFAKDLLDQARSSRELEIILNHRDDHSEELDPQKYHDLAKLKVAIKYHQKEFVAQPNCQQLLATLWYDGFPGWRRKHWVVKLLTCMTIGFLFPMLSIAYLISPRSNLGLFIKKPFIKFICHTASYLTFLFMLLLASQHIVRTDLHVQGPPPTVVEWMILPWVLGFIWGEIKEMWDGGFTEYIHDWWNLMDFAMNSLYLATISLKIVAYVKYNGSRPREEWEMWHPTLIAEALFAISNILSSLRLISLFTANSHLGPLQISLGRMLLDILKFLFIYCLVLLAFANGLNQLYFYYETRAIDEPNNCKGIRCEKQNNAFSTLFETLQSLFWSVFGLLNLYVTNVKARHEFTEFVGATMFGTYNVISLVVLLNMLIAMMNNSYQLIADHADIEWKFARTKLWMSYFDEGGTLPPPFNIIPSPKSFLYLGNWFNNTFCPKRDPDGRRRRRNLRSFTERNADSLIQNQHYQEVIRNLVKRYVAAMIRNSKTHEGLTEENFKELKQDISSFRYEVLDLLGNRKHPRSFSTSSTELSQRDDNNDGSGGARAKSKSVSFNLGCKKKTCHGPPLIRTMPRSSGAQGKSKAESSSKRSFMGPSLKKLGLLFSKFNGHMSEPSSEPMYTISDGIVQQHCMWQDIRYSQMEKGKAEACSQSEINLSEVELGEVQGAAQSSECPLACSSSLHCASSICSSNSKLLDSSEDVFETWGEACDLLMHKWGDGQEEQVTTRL

[2] = biological target: T1, Short transient receptor potential channel 5 (Homo sapiens); experiment: Induction of S-nitrosylation of TRPC5 in HEK cells assessed as increase in Ca2+ level from extracellular space at 10 uM; assay type: cell-based; settings: HEK293
[3] = biological target: T1, Short transient receptor potential channel 5 (Homo sapiens); experiment: Induction of S-nitrosylation of TRPC5 in HEK cells assessed as increase in Ca2+ level from extracellular space at 5 mM extracellular administration; assay type: cell-based; settings: HEK293
[4] = biological target: T1, Short transient receptor potential channel 5 (Homo sapiens); experiment: Induction of S-nitrosylation of TRPC5 in HEK cells assessed as increase in Ca2+ level from extracellular space at 1 mM; assay type: cell-based; settings: HEK293
[5] = biological target: T1, Short transient receptor potential channel 5 (Homo sapiens); experiment: Induction of S-nitrosylation of TRPC5 in HEK cells assessed as increase in Ca2+ level from extracellular space at 5 mM; assay type: cell-based; settings: HEK293
[6] = biological target: T1, Short transient receptor potential channel 5 (Homo sapiens); experiment: Induction of S-nitrosylation of TRPC5 in HEK cells assessed as inhibition of incorporation of DTNB-2Bio at 30 uM; assay type: cell-based; settings: HEK293
[7] = tested on: BAEC; experiment: Inhibition of NO production in BAEC assessed as inhibition of Ca2+ influx at 10 mM; assay type: functional, cell-based; settings: Bos taurus
[8] = tested on: BAEC; experiment: Inhibition of NO production in BAEC at 300 uM; assay type: functional, cell-based; settings: Bos taurus
[9] = tested on: BAEC; experiment: Inhibition of NO production in BAEC assessed as inhibition of Ca2+ influx at 300 uM; assay type: functional, cell-based; settings: Bos taurus
[10] = tested on: BAEC; experiment: Inhibition of NO production in BAEC assessed as inhibition of Ca2+ influx at 1 mM; assay type: functional, cell-based; settings: Bos taurus
[11] = tested on: DT40; experiment: Induction of P2Y mediated TRPC5 S-nitrosylation in chicken DT40 cells assessed as increase in Ca2+ level from extracellular space at 100 uM in presence of PLC-beta inhibitor U73122; assay type: cell-based

With O=C(O)c1cc(SSc2ccc([N+](=O)[O-])c(C(=O)O)c2)ccc1[N+](=O)[O-] the Activity [1] was “Active”.

For O=c1onc2cnc3ccccc3n12, the Activity [2] was “inactive”.

For c1cc(SSc2ccncc2)ccn1, the Activity [1] was “Active”.

CS(=O)(=O)SCCN was tested, and the Activity [3] was “Active”.

[NH-]c1c[n+](N2CCOCC2)no1 was tested, and the Activity [4] was “Active”.

CC/C(=C\C(=N\O)C(N)=O)C(C)[N+](=O)[O-] (racemic) was tested, and the Activity [5] was “Active”.

In the case of O=C(CCCC[C@@H]1SC[C@@H]2NC(=O)N[C@@H]21)NCCCCCNC(=O)c1cc(SSc2ccc([N+](=O)[O-])c(C(=O)NCCCCCNC(=O)CCCC[C@@H]3SC[C@@H]4NC(=O)N[C@@H]43)c2)ccc1[N+](=O)[O-], the Activity [6] is reported as “Active”.

With CC(=O)N[C@@H](CS)C(=O)O the inhibition [7] was “Active”.

COC(=O)[C@@H](N)CCCNC(=N)N[N+](=O)[O-] was tested, and the inhibition [8] was “Active” and the inhibition [9] was “Active”.

In the case of O=C1O[C@H]([C@@H](O)CO)C(O)=C1O, the inhibition [10] is reported as “Active”.

For C[N+](C)(C)CCSS(C)(=O)=O, the Activity [3] was “inactive”.

With Nc1ncnc2c1ncn2[C@@H]1O[C@H](COP(=O)(O)OP(=O)(O)OP(=O)(O)O)[C@@H](O)[C@H]1O the Activity [11] was “inactive”.
